Measurements reported in ChEMBL document CHEMBL1833968, “Synthesis of novel triplet drugs with 1,3,5-trioxazatriquinane skeletons and their pharmacologies. Part 2: Synthesis of novel triplet drugs with the epoxymethano structure (capped homotriplet)” (Bioorg Med Chem Lett, 2011).
Calls of active or inactive are those of the source. No cut-off for these calls is given here.

Legend:
[1] = Selectivity ratio of Ki for guinea pig kappa opioid receptor to mouse mu opioid receptor
[2] = biological target: Kappa-type opioid receptor (Cavia porcellus, UniProt P41144); experiment: Displacement of [3H]U69,593 from guinea pig kappa opioid receptor in cerebellum
Sequence of Kappa-type opioid receptor (P41144 whole entry): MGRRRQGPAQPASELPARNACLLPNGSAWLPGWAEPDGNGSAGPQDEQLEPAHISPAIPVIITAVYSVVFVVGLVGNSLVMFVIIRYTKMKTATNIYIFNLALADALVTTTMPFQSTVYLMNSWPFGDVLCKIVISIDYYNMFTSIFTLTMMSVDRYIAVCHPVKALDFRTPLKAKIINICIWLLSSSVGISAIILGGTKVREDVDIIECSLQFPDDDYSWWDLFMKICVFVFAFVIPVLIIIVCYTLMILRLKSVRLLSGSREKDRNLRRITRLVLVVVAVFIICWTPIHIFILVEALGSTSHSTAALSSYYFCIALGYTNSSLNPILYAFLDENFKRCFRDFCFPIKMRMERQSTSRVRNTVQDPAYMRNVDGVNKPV

[3] = species: Mus musculus; experiment: Selectivity ratio of Ki for mouse delta opioid receptor to mouse mu receptor
[4] = biological target: Delta-type opioid receptor (Mus musculus, UniProt P32300); experiment: Displacement of [3H]DPDPE from mouse delta opioid receptor in whole brain without cerebellum
Sequence of Delta-type opioid receptor (P32300 whole entry): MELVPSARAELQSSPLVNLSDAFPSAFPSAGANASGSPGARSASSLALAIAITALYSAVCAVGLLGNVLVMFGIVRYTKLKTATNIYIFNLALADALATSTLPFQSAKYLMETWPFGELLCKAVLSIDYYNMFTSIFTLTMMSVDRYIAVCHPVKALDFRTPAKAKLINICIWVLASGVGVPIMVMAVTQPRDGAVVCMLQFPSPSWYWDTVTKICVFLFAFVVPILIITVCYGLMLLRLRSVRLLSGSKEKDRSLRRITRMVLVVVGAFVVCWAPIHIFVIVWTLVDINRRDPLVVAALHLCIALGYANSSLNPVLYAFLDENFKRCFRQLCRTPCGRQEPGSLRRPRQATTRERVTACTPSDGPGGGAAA

[5] = biological target: Mu-type opioid receptor (Mus musculus, UniProt P42866); experiment: Displacement of [3H]DAMGO from mouse mu opioid receptor in whole brain without cerebellum
Sequence of Mu-type opioid receptor (P42866 whole entry): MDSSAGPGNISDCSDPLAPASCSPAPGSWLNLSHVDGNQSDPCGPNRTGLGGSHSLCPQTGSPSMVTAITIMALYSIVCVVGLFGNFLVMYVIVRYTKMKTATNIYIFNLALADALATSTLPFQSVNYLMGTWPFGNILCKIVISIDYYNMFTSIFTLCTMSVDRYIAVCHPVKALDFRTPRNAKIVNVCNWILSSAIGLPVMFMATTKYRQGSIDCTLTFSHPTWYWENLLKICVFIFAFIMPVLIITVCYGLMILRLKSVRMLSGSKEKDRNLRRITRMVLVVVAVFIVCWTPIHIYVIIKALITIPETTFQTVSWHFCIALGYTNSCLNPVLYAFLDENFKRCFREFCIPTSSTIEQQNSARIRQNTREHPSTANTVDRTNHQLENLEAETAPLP

[6] = system: Mus musculus; experiment: Antinociceptive activity in sc dosed mouse assessed as inhibition of acetic acid-induced writhing administered 15 mins before acetic acid challenge measured after 10 mins relative to control; type: functional
[7] = system: Mus musculus; experiment: Ratio of morphine ED50 to compound ED50 for antinociceptive activity in sc dosed mouse assessed as inhibition of acetic acid-induced writhing administered 15 mins before acetic acid challenge measured after 10 mins; type: functional

SMILES: Oc1ccc2c3c1O[C@H]1[C@]4(CC[C@H]5[C@@H](C2)N(CC2CC2)CC[C@@]351)O[C@H]1CO[C@@H]2N1[C@H]4O[C@]21CC[C@H]2[C@H]3Cc4ccc(O)c5c4[C@@]2(CCN3CC2CC2)[C@H]1O5
- Ratio Ki [1]: 8.84
- Ki [2]: 6.36 nM
- Ratio Ki [3]: 10.8
- Ki [4]: 7.8 nM
- Ki [5]: 0.719 nM

SMILES: Oc1ccc2c3c1O[C@H]1[C@]4(CC[C@@]5(O)[C@@H](C2)N(CC2CC2)CC[C@]315)O[C@H]1CO[C@@H]2N1[C@H]4O[C@]21CC[C@@]2(O)[C@H]3Cc4ccc(O)c5c4[C@@]2(CCN3CC2CC2)[C@H]1O5
- Ratio Ki [1]: 5.73
- Ki [2]: 2.75 nM
- Ratio Ki [3]: 33.6
- Ki [4]: 16.2 nM
- Ki [5]: 0.48 nM

SMILES: CN1CC[C@]23c4c5ccc(O)c4O[C@H]2[C@]2(CC[C@@]3(O)[C@H]1C5)O[C@H]1CO[C@@H]3N1[C@H]2O[C@]31CC[C@@]2(O)[C@H]3Cc4ccc(O)c5c4[C@@]2(CCN3C)[C@H]1O5
- Ratio Ki [1]: 161
- ED50 [6]: 0.14 mg/kg
- inhibition [6]: Dose-dependent effect
- Ratio ED50 [7]: 4
- Ki [2]: 337 nM
- Ratio Ki [3]: 25.3
- Ki [4]: 52.9 nM
- Ki [5]: 2.09 nM

SMILES: Oc1ccc2c3c1O[C@H]1[C@]4(CC[C@@]5(O)[C@@H](C2)N(CC2CCC2)CC[C@]315)O[C@H]1CO[C@@H]2N1[C@H]4O[C@]21CC[C@@]2(O)[C@H]3Cc4ccc(O)c5c4[C@@]2(CCN3CC2CCC2)[C@H]1O5
- Ratio Ki [1]: 67.7
- Ki [2]: 176 nM
- Ratio Ki [3]: 19.2
- Ki [4]: 50 nM
- Ki [5]: 2.6 nM

SMILES: CC(C)CN1CC[C@]23c4c5ccc(O)c4O[C@H]2[C@]2(CC[C@@]3(O)[C@H]1C5)O[C@H]1CO[C@@H]3N1[C@H]2O[C@]31CC[C@@]2(O)[C@H]3Cc4ccc(O)c5c4[C@@]2(CCN3CC(C)C)[C@H]1O5
- Ratio Ki [1]: 4.7
- Ki [2]: 119 nM
- Ki [4]: > 1000 nM
- Ki [5]: 25.3 nM

SMILES: Oc1ccc2c3c1O[C@H]1[C@]4(CC[C@@]5(O)[C@@H](C2)N(CC2CC2)CC[C@]315)O[C@@H]1CO[C@H]2N1[C@@H]4O[C@]21CC[C@@]2(O)[C@H]3Cc4ccc(O)c5c4[C@@]2(CCN3CC2CC2)[C@H]1O5
- Ratio Ki [1]: 6.47
- Ki [2]: 247 nM
- Ki [4]: > 1000 nM
- Ki [5]: 38.2 nM

SMILES: C=CCN1CC[C@]23c4c5ccc(O)c4O[C@H]2C(=O)CC[C@@]3(O)[C@H]1C5
- inhibition [6]: inactive

SMILES: Oc1ccc2c3c1O[C@@H]1[C@]34CCN(CC3CC3)[C@H](C2)[C@]4(O)CC[C@@]12C=N[C@@H]([C@]1(O)CC[C@@]3(O)[C@H]4Cc5ccc(O)c6c5[C@@]3(CCN4CC3CC3)[C@H]1O6)O2
- Ratio Ki [1]: 1.61
- Ki [2]: 1.66 nM
- Ratio Ki [3]: 38.4
- Ki [4]: 39.6 nM
- Ki [5]: 1.03 nM

SMILES: Oc1ccc2c3c1O[C@@H]1[C@]34CCN(CC3CC3)[C@H](C2)[C@]4(O)CC[C@@]12C=N[C@H]([C@]1(O)CC[C@@]3(O)[C@H]4Cc5ccc(O)c6c5[C@@]3(CCN4CC3CC3)[C@H]1O6)O2
- Ratio Ki [1]: 0.61
- Ki [2]: 1.16 nM
- Ratio Ki [3]: 28.3
- Ki [4]: 53.7 nM
- Ki [5]: 1.9 nM

SMILES: Oc1ccc2c(c1)[C@]13CCN(CC4CC4)[C@H](C2)[C@]1(O)CC[C@@]1(C3)O[C@H]2CO[C@@H]3N2[C@H]1O[C@]31CC[C@@]2(O)[C@H]3Cc4ccc(O)cc4[C@@]2(CCN3CC2CC2)C1
- Ratio Ki [1]: 11.2
- Ki [2]: 8.67 nM
- Ratio Ki [3]: 7.76
- Ki [4]: 5.98 nM
- Ki [5]: 0.771 nM
